Like-named read-outs stand apart in the source and are kept apart here.
Tests used:
[1] = test system: Caco-2 cells; assay: In vitro intestinal barrier model, absorption with fluorescent tracer (Transwell)
[2] = test system: neuregulin 1 (NRG1); assay: 3D EngNT under PNI conditions, NRG1 ELISA; assay type: cell-based, rat; conditions: GGF 200 ng/mL, result in words
Description: To replicate a strong demyelination before stimulation with the two formulations and the single drugs, the 3D EngNT was pre-treated with 200 ng/mL glial growth factor 2 (GGF) starting on day 14 of maturation. This was necessary since the study needed to replicate the peripheral nerve tissue damage in vitro. Therefore, further studies were conducted to investigate the effects on cell viability and ROS production (Figures 5A-B). […] In contrast, both the individual components and formulations were able not only to re-establish physiological conditions, but also to induce a significant increase in cell viability and a decrease in ROS production (p<0.05). […]
This study was carried out in three different phases; the starting point of the study protocol was intended to study the absorption and transport processes of the novel formulation and individual components through the intestinal barrier using a 3D in vitro model with Caco-2 cells. […] Finally, in the third phase, peripheral nerve damage and demyelination were simulated in vitro, treating 3D EngNT with GGF 200ng/ml, to explore cell survival and mitochondrial activity, oxidative stress and ROS quantification, the inflammatory processes involved in neuropathy, nociceptive pathways for pain control, and the main pathways involved in the processes of myelin sheath protection and neurite formation. […]

[3] = test system: Caco-2 cells; conditions: human

Compound | Absorption Rate ([1]; 2h, Gastrodin 25µM, Citicoline 250mM, Acetyl-L-Carnitine 7.5µM, Vit. B group 1mg/mL, Lipoic Acid 50µM) [%] | Absorption Rate ([1]; 3h, same concentrations) [%] | Absorption Rate ([1]; 4h, same concentrations) [%] | Absorption Rate ([1]; 5h, same concentrations) [%] | Absorption Rate ([1]; 6h, same concentrations) [%] | NRG1 activity [2] | Absorption Rate ([3]; 3 h) [%] | Absorption Rate ([3]; 4 h) [%] | Absorption Rate ([3]; 5 h) [%] | Absorption Rate ([3]; 6 h) [%]
CC(=O)O[C@H](CC(=O)[O-])C[N+](C)(C)C [Acetyl-L-Carnitine, (R)-3-acetyloxy-4-trimethylammonium-butanoate] | 69.49 | 77.35 | 80.65 | 69.90 | 54.16 |  |  |  |  | 
O=C(O)CCCCC1CCSS1 (stereo not shown) [Lipoic acid] |  |  |  |  |  | not able to improve it compared to GGF 200ng/mL | 49.27 | 53.77 | 51.71 | 41.36

— patent EP4667007A2, “NOVEL ASSOCIATION OF GASTRODIA ELATA AND VITAMIN B” (Futura S.r.l., priority 2024, dated 2025)
